pEC50: −log10 of the molar value.
How the values were obtained:
[1] = Cytotoxicity (CellTiter 96 AQueous One, MTS); type: cell-based, human; details: human; CCRF−CEM cells
Experimental: (§1) The cytotoxicity and human immunodeficiency virus type 1 (HIV-1) strain LAI replication assays were performed in freshly explanted primary human peripheral blood mononuclear cells (PBM cells) according to published procedures. The assays were conducted at least in triplicate and treated statistically (if possible). HIV-1LAI (= HIV-1BRU = LAV-1) was assayed in primary human peripheral blood lymphocyte (PBL) cells in the presence of a drug being evaluated. The parameter for antiviral activity was a reduction in reverse transcriptase (RT) activity in the cell supernatant after Triton X–100-mediated lysis of released virions, as measured using [5α-^3H]dTTP (5α-tritiated thymidine 5′-triphosphate) incorporation into poly(rA)•poly(dT) directed by the primed RNA template poly(rA)•oligo(dT). […] The detailed assay methodology was reported by Schinazi et al. as based on an older assay system of Spira et al.. The experiments were conducted in triplicate and treated statistically using regression curve analysis (r^2 coefficient of determination). The RT inhibitor AZT (zidovudine, 3′-azido-3′-deoxythymidine; RETROVIR™) served as a positive control. Cytotoxicity on PBL and the other cells (CCRF−CEM, Vero) exerted by the test compounds was determined as described by Stuyver et al. by application of the CellTiter 96® AQueous One Solution Cell Proliferation Assay (Promega Corp., Madison, WI, USA). Briefly, the phenazine ethosulfate (PES)-coupled reduction of the tetrazolium salt 3-(4,5-dimethylthiazol-2-yl)-5-(3-carboxymethoxyphenyl)-2-(4-sulfophenyl)-2H-tetrazolium (MTS) to a purple, water-soluble formazan by living, undamaged cells was measured.

[2] = test system: CCRF−CEM cells; experiment: Cytotoxicity (CellTiter 96 AQueous One, MTS); type: cell-based, human; details: Homo sapiens, 1.0 µM, read-out: CCRF–CEM growth inhibition at fixed 1.0 µM concentration
Experimental: as §1

[3] = test system: CCRF-CEM; details: for GI50 / CC50: Homo sapiens, 48 h; for CC50: read-out: LC50; for TGI: leukemia, mutant p53, 48 h
[4] = test system: HL-60 (TB)
[5] = test system: HOP-92; type: cell-based; details: HOP-92, non-small-cell lung cancer, mutant p53, 48 h
[6] = test system: U251; details: for GI50 / CC50: Homo sapiens, U-251, 48 h; for CC50: read-out: LC50; for TGI: U251, CNS cancer (brain tumor), mutant p53, 48 h
[7] = test system: T-47D; details: 48 h; for GI50 / CC50: Homo sapiens, T47D; for CC50: read-out: LC50; for TGI: T-47D, breast cancer, mutant p53
[8] = Cytotoxicity (CellTiter 96 AQueous One, MTS); type: cell-based; details: human; PBM cells
Experimental: (§2) The cytotoxicity and human immunodeficiency virus type 1 (HIV-1) strain LAI replication assays were performed in freshly explanted primary human peripheral blood mononuclear cells (PBM cells) according to published procedures. The assays were conducted at least in triplicate and treated statistically (if possible). HIV-1LAI (= HIV-1BRU = LAV-1) was assayed in primary human peripheral blood lymphocyte (PBL) cells in the presence of a drug being evaluated. The parameter for antiviral activity was a reduction in reverse transcriptase (RT) activity in the cell supernatant after Triton X–100-mediated lysis of released virions, as measured using [5α-^3H]dTTP (5α-tritiated thymidine 5′-triphosphate) incorporation into poly(rA)•poly(dT) directed by the primed RNA template poly(rA)•oligo(dT). […] Cytotoxicity on PBL and the other cells (CCRF−CEM, Vero) exerted by the test compounds was determined as described by Stuyver et al. by application of the CellTiter 96® AQueous One Solution Cell Proliferation Assay (Promega Corp., Madison, WI, USA). Briefly, the phenazine ethosulfate (PES)-coupled reduction of the tetrazolium salt 3-(4,5-dimethylthiazol-2-yl)-5-(3-carboxymethoxyphenyl)-2-(4-sulfophenyl)-2H-tetrazolium (MTS) to a purple, water-soluble formazan by living, undamaged cells was measured.

[9] = test system: HIV-1LAI; experiment: HIV-1LAI replication reverse transcriptase assay in primary PBM cells; type: cell-based, human immunodeficiency virus type 1
Experimental: as §1

[10] = test system: SR; details: for GI50 / CC50: Homo sapiens, 48 h; for CC50: read-out: LC50; for TGI: leukemia, wild-type p53, 48 h
[11] = test system: p21^Waf1/p21^Cip1, cyclin D1, Bax; experiment: Expression of p53-regulated protein factors in cancer cells (data not shown); type: cell-based; details: mCRPC cells, multiple myeloma U266 cells, plasmacytoma RPMI-8226 cells
[12] = test system: K-562; details: for GI50 / CC50: Homo sapiens, K562, 48 h; for CC50: read-out: LC50; for TGI: K-562, leukemia, mutant p53, 48 h
[13] = Cytotoxicity (CellTiter 96 AQueous One, MTS); type: cell-based, African green monkey (grivet) Chlorocebus aethiops; details: African green monkey (Chlorocebus aethiops), Vero cells
Experimental: as §2

[14] = test system: EKVX; details: non-small-cell lung cancer, mutant p53, 48 h
[15] = Storage stability of the solid substance (1H-NMR after storage); type: physicochemical; details: over six years at +0–4 °C in the refrigerator
Experimental: The specimen of compound 3, which was synthesized on Saturday, 27 May 2017, was investigated using proton NMR (Figure 13) on Wednesday, 23 August 2023, after over six years of storage at +0–4 °C in the refrigerator. The specimen was newly dried over CaCl2 in vacuo for 19 h. […]

SMILES	GI50 [3]	CC50 [3]	TGI [3]	TGI [5]	GI50 [6]	CC50 [6]	TGI [6]	GI50 [7]	CC50 [7]	TGI [7]	GI50 [10]	CC50 [10]	TGI [10]	GI50 [12]	CC50 [12]	TGI [12]	TGI [14]	also measured
c1cc(CNC23CC4CC(CC(C4)C2)C3)cc(C[N+](Cc2cccc(CNC34CC5CC(CC(C5)C3)C4)c2)(Cc2cccc(CNC34CC5CC(CC(C5)C3)C4)c2)Cc2cccc(CNC34CC5CC(CC(C5)C3)C4)c2)c1 (stereo not drawn) [Compound 1, tetrakis{3-[(tricyclo[3.3.1.1^3,7]decan-1-ammonio)methyl]benzyl}ammonium pentachloride]	1460 nM	> 50 µM	> 50 µM	3.06 µM	1120 nM	8.79 µM	2.69 µM	1340 nM	38 µM	6.72 µM	1490 nM	> 50 µM	> 50 µM	1460 nM	> 50 µM	36.2 µM	–	CC50 [1]: < 1000 nM; inhibition at 1 µM [2]: 60%; TGI ([4]; HL-60 (TB), leukemia, mutant p53, 48 h): 2.71 µM; GI50 ([4]; Homo sapiens, HL-60, 48 h): 870 nM; GI50 ([5]; Homo sapiens): 1140 nM; CC50 ([5]; Homo sapiens, read-out: LC50 (the source's name)): 12.6 µM; CC50 [8]: 2200 nM; pEC50 ([9]; Human immunodeficiency virus 1, PBMC, primary human PBM cells, reverse transcriptase activity in supernatant, read-out: Anti-HIV-1LAI activity EC50): 6.25; EC90 ([9]; Human immunodeficiency virus 1, PBMC, primary human PBM cells, reverse transcriptase activity in supernatant, read-out: Anti-HIV-1LAI activity EC90): 4.3 µM; SI50, selectivity index CC50/EC50 ([9]; PBM cells): 3.9; cyclin D1 protein factor [11]: downregulated; expression of cyclin-dependent kinase inhibitor p21^Waf1/p21^Cip1 [11]: induced the expression; pro-apoptotic factor Bax expression [11]: increased; CC50 [13]: 1800 nM
COc1cc2c(c(OC)c1OC)-c1ccc(NNC(N)=S)c(=O)cc1C(NC(C)=O)CC2 [Compound 2, N-[(aS,7S)-10-(2-carbamothioylhydrazinyl)-1,2,3-trimethoxy-9-oxo-5,6,7,9-tetrahydrobenzo[a]heptalen-7-yl]acetamide monohydrate × ⅔ (ethyl acetate)]	422 nM	> 100 µM	> 100 µM	–	479 nM	> 100 µM	> 100 µM	> 100000 nM	> 100 µM	> 100 µM	279 nM	> 100 µM	> 100 µM	362 nM	> 100 µM	> 100 µM	> 100 µM	–
COc1cc2c(c(OC)c1OC)-c1ccc(NNC(=S)N(Cc3cccc(C[N+](Cc4cccc(CNC56CC7CC(CC(C7)C5)C6)c4)(Cc4cccc(CNC56CC7CC(CC(C7)C5)C6)c4)Cc4cccc(CN(C(=S)NNc5ccc6c(cc5=O)C(NC(C)=O)CCc5cc(OC)c(OC)c(OC)c5-6)C56CC7CC(CC(C7)C5)C6)c4)c3)C34CC5CC(CC(C5)C3)C4)c(=O)cc1C(NC(C)=O)CC2 [Compound 3, [(bis{3-[(tricyclo[3.3.1.1^3,7]decan-1-ylamino)methyl]benzyl}ammonio)bis(methanediylbenzene-3,1-diylmethanediyl)]di-2-[(aS,7S)-7-(acetylamino)-1,2,3-trimethoxy-9-oxo-5,6,7,9-tetrahydrobenzo[a]heptalen-10-yl]-N-(tricyclo[3.3.1.1^3,7]decan-1-yl)hydrazinecarbothioamide chloride pentahydrate]	–	–	2.47 µM	4.08 µM	–	–	–	–	–	9.40 µM	–	–	–	–	–	–	8.46 µM	stability on storage (1H-NMR) [15]: very pure even after six years storage

From publication PMC10892984, “Novel Antineoplastic Inducers of Mitochondrial Apoptosis in Human Cancer Cells” (Molecules, 2024)
